Source: patent US6444648B1, “Leishmaniasis remedy containing glucopyranose derivative as the active ingredient” (University of the Ryukyu, priority 1997, dated 2002)

Tested on: L. amazonesis
Assay: Effects upon leishmaniasis-infected mice (shrinkage of skin foci)
Type: in vivo, BALB/c mice
Conditions: 30 mg/kg twice a week for 8 weeks; for Average focus shrinkage degree: before administration = 100
Excerpt: L. amazonesis was inoculated to tail root portions of BALB/c mice to prepare L. amazonesis-infected mice, and the mice were used 6 week after the infection. These mice were divided into four groups as mentioned below, infected foci (tail root portions) were photographed with lapse of time, and the effects upon them were examined in terms of [by means of] shrinkage degrees of the skin foci. The shrinkage degree of the skin focus was found by measuring a major axis of ulcer or node. The magnitude before administration was taken as 100 and the magnitude 8 weeks after administration was calculated according to the following calculation formula. Group A (Control group) Only a solvent (55% ethanol-4.5% glucose liquid) was injected topically into a focus twice a week for 8 weeks. Group B (Control group) Only a solvent (55% ethanol-4.5% glucose liquid) was injected intraperitoneally twice a week for 8 weeks. Group C (Topically injected group) A solution in which the sodium salt of the compound in the present invention represented by the formula (1) was dissolved in the solvent was injected topically into a focus twice a week for 8weeks at a rate of 30 mg/kg. Group D (intraperitoneally injected group) A solution in which the sodium salt of the compound in the present invention represented by the formula (1) was dissolved in the solvent was injected intraperitoneally twice a week for 8 weeks at a rate of 30 mg/kg. [formula]

**Q.** What does the source list for “2-deoxy-2-[(3S)-(9-phenylnonanoyloxy)tetradecanoyl]amino-3-O-(9-phenylnonanoyl)-4-O-sulfo-α-D-glucopyranose”?
**A.** Average focus shrinkage degree (Group C: injected topically into focus, magnitude (major axis of ulcer or node) 8 weeks after administration, n = 7, solvent control Group A 220.5): 138.9 (n = 7); Skin focus completely cured (number of mice) (Group C: topical injection, n = 7): completely cured with respect to three mice; Average focus shrinkage degree (Group D: injected intraperitoneally, magnitude 8 weeks after administration, n = 6, solvent control Group B 289.3): 178.5 (n = 6)

**Q.** `CCCCCCCCCCC[C@@H](CC(=O)N[C@@H]1[C@@H](OC(=O)CCCCCCCCc2ccccc2)[C@H](OS(=O)(=O)[O-])[C@@H](CO)O[C@@H]1O)OC(=O)CCCCCCCCc1ccccc1.[Na+]` [the compound in the present invention, 2-deoxy-2-[(3S)-(9-phenylnonanoyloxy)tetradecanoyl]-amino-3-O-(9-phenylnonanoyl)-4-O-sulfo-α-D-glucopyranose] was tested. Which “Effect on focal infection of leishmaniasis-infected mice (in words)” value (conclusion from Table 1, topical or intraperitoneal) did it give?
**A.** effectively shrunk the focal infection
